Results as given in PMC11337205, “Unraveling Interspecies Differences in the Phase I Hepatic Metabolism of Alternariol and Alternariol Monomethyl Ether: Closing Data Gaps for a Comprehensive Risk Assessment” (Chemical Research in Toxicology, 2024).
Read-outs that look alike come from different tables or passages of the source.

Columns and labels:
[1] = Pattern of oxidative metabolites in human LMs by HR-MS; type: in vitro ADME; details: human LMs incubated with AME
Protocol: (§1) The kinetics of the phase I metabolism of AOH and AME was investigated by incubating human, rat (both 1 mg protein/mL), and porcine LMs (2 mg protein/mL) with 1, 10, 20, 50, and 100 μM AOH or 1, 10, 20, and 50 μM AME based on the protocol by Al-Subeihi et al.[34] The incubation solution contained a final concentration of 3 mM NADPH and 1 mM ascorbic acid in 200 mM Tris–HCl (pH 7.4). After preincubation (37 °C, 1 min, mixing at 250–300 rpm), the toxin stock was added in a 1:100 dilution, resulting in a total DMSO content of 1% and the desired toxin concentration. DMSO was selected for this assay because it is the least inhibitory of the solvents studied by Busby et al. on CYP1A1,[35] the primary enzyme involved in the hydroxylation of AOH and AME.[26] The well-established solubility of the test compounds in DMSO and DMSO-containing aqueous buffers facilitated laboratory work and ensured consistency with existing literature, thereby improving the comparability of results across studies, including those of Pfeiffer and colleagues.[25] In a preliminary investigation, incubation times of 5 and 10 min were chosen because they fall within the linear range of the transformation rate–time relationship, thereby ensuring initial rate conditions (Figure S1). When the selected incubation time (0–10 min) passed, one part of the sample was pipetted into two parts of ice-cold extraction solvent (acetonitrile–methanol, 1:1, v/v) for reaction termination. Subsequently, the samples were placed into the freezer (−20 °C) for at least an hour, centrifuged (15 min, 18,000g, 4 °C), and further diluted in methanol–water (3:7, v/v) prior to LC–MS measurements. In the solvent control, the toxin was substituted with DMSO in the incubation solution. Control incubations were performed without the cofactor NADPH or with heat-inactivated microsomes (98 °C, 10 min, mixing at 300 rpm).
Pooled high-resolution MS (HR-MS) samples were analyzed on a Vanquish UHPLC system (Thermo Fisher Scientific, Waltham, MA, USA) connected to a dual-pressure linear trap-quadrupole Orbitrap mass analyzer (Velos ETD, Thermo Fisher Scientific, Waltham, MA, USA). The heated ESI interface (source heater temperature: 400 °C) was operated in both positive and negative modes. The mobile and stationary phases were the same as those for the targeted analysis. The column compartment temperature was kept at 40 °C. A multistep gradient was applied at a flow rate of 0.4 mL/min and started with rinsing the column for 1 min at 10% eluent B. Then, the organic content was linearly raised to 100% until the 11th minute. Subsequently, the column was purged with 100% eluent B for two additional minutes. […]

[2] = Phase I metabolism kinetics (parent toxin loss) in NADPH-fortified porcine liver microsomes, LC-MS/MS; type: in vitro ADME, pig; details: for microsomal CLint: Large White, pH 7.4, porcine LMs, read-out: CLint (intrinsic clearance)
Protocol: Pooled human LMs and pooled Sprague–Dawley rat hepatic microsomes, both originating from male donors, were purchased from Sigma-Aldrich (St. Louis, MO, USA) and Gibco, Thermo Fisher Scientific (Waltham, MA, USA), respectively. Porcine LMs were prepared according to an in-house-developed protocol based on the publication of Knights et al.[32] The liver of an approximately four-month-old female “Large White” (or “German Edelschwein”) pig was obtained from a local slaughterhouse. After slaughtering, the liver was placed on ice for about an hour, kept in ice-cold 50 mM tris(hydroxymethyl)aminomethane hydrochloride (Tris–HCl) (pH 7.4) for an additional hour while being transported, and processed immediately.
as §1
The quantification of selected analytes using external calibration (MS parameters listed in Supporting Information Table S1) was conducted on a high-performance liquid chromatographic system (Dionex UltiMate 3000 UHPLC, Dionex Softron GmbH, Germering, Germany) coupled to a triple quadrupole mass spectrometer (TSQ Vantage, Thermo Fisher Scientific, Waltham, MA, USA), equipped with a heated electrospray ionization (ESI) interface. The applied analytical method is based on Puntscher et al.[28],[36] with slight modifications, which are specified below.
In brief, the Ascentis Express C18 column (10 cm × 2.1 mm, 2.7 μm, Supelco, Munich, DE), equipped with the Phenomenex SecurityGuard (C18 Cartridges, 4 × 2.0 mm ID, Phenomenex Ltd. Deutschland, Aschaffenburg, Germany), served as the stationary phase. Eluent A was aqueous ammonium acetate (5 mM, pH adjusted to 8.6 with a 25% ammonia solution), and eluent B was methanol. During the first minute, the column was kept at 30% eluent B. Subsequently, the eluent B content was linearly raised to 100% within 6 min. Thereafter, the column was washed with 100% eluent B for 1.5 min. Lastly, the column was re-equilibrated at the initial conditions, reaching an overall run time of 10 min. The autosampler compartment was kept at 10 °C, while the column oven temperature was maintained at 30 °C. […]

SMILES: Cc1cc(O)cc2oc(=O)c3c(O)cc(O)cc3c12 [AOH, alternariol]
- relative abundance among phase I metabolites (in words) [1]: small amounts
- Km ([2]; female, Large White (German Edelschwein), pig, liver microsomes, pH 7.4, porcine LMs 2 mg protein/mL, NADPH, within 10 min, Michaelis–Menten model, read-out: Km (Michaelis constant)): 672 µM
- microsomal CLint ([2]; female, pig, liver microsomes, Michaelis–Menten model, ratio Vmax/Km): 8.52 µL/min/mg
- microsomal CLint ([2]; female, pig, liver microsomes, linear regression, lower concentration range): 6.56 µL/min/mg
- Concentration decrease ([2]; porcine LMs, 1 µM toxin, 5 min): 20%
- Concentration decrease ([2]; porcine LMs, 1 µM toxin, 10 min): 47%
- Concentration decrease ([2]; porcine LMs, 10 µM toxin, 5 min): 6%
- Concentration decrease ([2]; porcine LMs, 10 µM toxin, 10 min): 16%
- Concentration decrease ([2]; porcine LMs, 20 µM toxin, 5 min): 2%
- Concentration decrease ([2]; porcine LMs, 20 µM toxin, 10 min): 15%
- Concentration decrease ([2]; porcine LMs, 50 µM toxin, 5 min): 11%
- Concentration decrease ([2]; porcine LMs, 50 µM toxin, 10 min): 14%
- Concentration decrease ([2]; porcine LMs, 100 µM toxin, 5 min): 12%
- Concentration decrease ([2]; porcine LMs, 100 µM toxin, 10 min): 14%
- Vmax (maximum transformation rate) ([2]; porcine LMs, within 10 min, Michaelis–Menten model): 5730 pmol/mg/min
